Data set [1] is described as follows: Selectivity index, ratio of IC50 for rat L6 cells to IC50 for chloroquine-sensitive Plasmodium falciparum NF54 erythrocytic stages. It counts as toxicity. The following applies: read-out: Ratio IC50.
A short description of data set [2]: Effective permeability by PAMPA. It counts as ADME. The following applies: read-out: Peff.
In data set [3] the test system is Plasmodium falciparum. The data set is described as follows: Antiplasmodial activity against chloroquine-sensitive Plasmodium falciparum NF54 erythrocytic stages incubated for 48 hrs by [3H]-hypoxanthine incorporation assay. In kind it is functional, organism-based.
For a further data set, the system named is L6. The data set is described as follows: Cytotoxicity in rat L6 cells assessed as reduction in cell viability incubated for 72 hrs by alamar blue assay. It counts as cell-based. The following applies: L6, 72 h.
Data set [4] deals with Plasmodium berghei. The data set is described as follows: Antiplasmodial activity against GFP-transfected Plasmodium berghei ANKA infected in NMRI mouse assessed as reduction in parasitaemia at 50 mg/kg/day, ip for consecutive 4 days (4, 24, 48 and 72 hrs post infection) and measured up to 20 days after infection relative to untreated control. It counts as functional. Further details: scale not given: the % may be the effect or the level left.

Data set [5] concerns Plasmodium berghei.
Description: Antiplasmodial activity against GFP-transfected Plasmodium berghei ANKA infected in NMRI mouse assessed as mean survival days at 50 mg/kg/day, ip for consecutive 4 days (4, 24, 48 and 72 hrs post infection) and measured up to 20 days after infection (Rvb = 6 to 7 days)
Data set [6] deals with Plasmodium falciparum. The data set is described as follows: Antiplasmodial activity against chloroquine and pyrimethamine resistant Plasmodium falciparum K1 erythrocytic stages incubated for 48 hrs by [3H]-hypoxanthine incorporation assay. In kind it is functional, organism-based.
A short description of data set [7]: Selectivity index, ratio of IC50 for rat L6 cells to IC50 for chloroquine and pyrimethamine resistant Plasmodium falciparum K1. It counts as toxicity. Conditions: read-out: Ratio IC50.

The record followed here is ChEMBL document CHEMBL4392851, “Synthesis and structure-activity relationships for new 6-fluoroquinoline derivatives with antiplasmodial activity” (Bioorg Med Chem, 2019).

SMILES strings stand for the structures. pIC50: −log10 of the molar value.

Consider `CCC(=O)N1CCN(Cc2cc(-c3ccc(CN4CCOCC4)cc3)nc3ccc(F)cc23)CC1`, for which, in data set [1], the selectivity ratio came out at 3.83. In data set [2], the Papp was determined as 7.15 ×10⁻⁶ cm/s. Also, the figures for the pIC50 in the data set on Plasmodium falciparum [3] and in the data set on L6 (read-out: IC50) were 5.00 and 4.41, respectively.

With `CC(C)(C)C(=O)N1CCN(CCNC(=O)c2cc(-c3ccc(CN4CCOCC4)cc3)nc3ccc(F)cc23)CC1`, the Activity in the data set with Plasmodium berghei [4] is 25.2%. Moreover, in data set [1], the selectivity ratio is 16000. In addition, the Papp in data set [2] came out at 6.11 ×10⁻⁶ cm/s. Further, the MSD in the data set with Plasmodium berghei [5] was 4 days. For the same molecule, the pIC50 was 8.30 in the data set on Plasmodium falciparum [3] and 4.10 in the data set with L6 (read-out: IC50).

Take `O=C(NCc1ccccc1)c1cc(-c2ccc(CN3CCOCC3)cc2)nc2ccc(F)cc12`: in data set [1], the selectivity ratio was found to be 17.2. Further, the pIC50 in the data set with Plasmodium falciparum [3] was 5.22; in the data set with L6 (read-out: IC50), 3.99.

With `CC(C)(C)N1CCN(CCNC(=O)c2cc(-c3ccc(CN4CCOCC4)cc3)nc3ccc(F)cc23)CC1`, the selectivity ratio in data set [1] was 32.1. For the same molecule, in data set [2], the Papp was found to be 2.09 ×10⁻⁶ cm/s. Besides, the pIC50 in the data set on Plasmodium falciparum [3] was 5.51; in the data set with L6 (read-out: IC50) it was 4.00.

Turning to `Fc1ccc2nc(-c3ccc(CN4CCOCC4)cc3)cc(CNCCN3CCN(c4ccccc4)CC3)c2c1`, the selectivity ratio in data set [1] amounted to 732; in data set [7] it was 396. In addition, the pIC50 is 7.43 in the data set on Plasmodium falciparum [6], 7.70 in the data set with Plasmodium falciparum [3] and 4.83 in the data set on L6 (read-out: IC50). Moreover, the Papp in data set [2] was determined as 2.39 ×10⁻⁶ cm/s.

In the case of `C[C@@H]1CC[C@H]2[C@@H](C)C(=O)O[C@@H]3O[C@@]4(C)CC[C@@H]1[C@]32OO4` [ARTEMISININ], the pIC50 in the data set with Plasmodium falciparum [6] was 8.19. Also, in data set [7], the selectivity ratio is 70400.

As to `Nc1cc(-c2ccc(CN3CCOCC3)cc2)nc2ccc(F)cc12`, the results for the selectivity ratio in data set [1] and in data set [7] were 93.3 and 55, respectively. Also, the pIC50 is 6.41 with Plasmodium falciparum [6], 6.64 in the data set on Plasmodium falciparum [3] and 4.67 in the data set on L6 (read-out: IC50).

On to `O=C(NCCc1ccccn1)c1cc(-c2ccc(CN3CCOCC3)cc2)nc2ccc(F)cc12`, for which the selectivity ratio in data set [1] was determined as 3.6. Besides, the Papp in data set [2] worked out at 9.35 ×10⁻⁶ cm/s. Further, the pIC50 was 4.83 in the data set on Plasmodium falciparum [3] and 4.27 in the data set with L6 (read-out: IC50).

In the case of `O=C(NC1CCNCC1)c1cc(-c2ccc(CN3CCOCC3)cc2)nc2ccc(F)cc12`, the selectivity ratio in data set [1] stood at 69.9. Also, the pIC50 was 6.00 with Plasmodium falciparum [3] and 4.16 in the data set with L6 (read-out: IC50).

As for `O=C(c1cc(-c2ccc(CN3CCOCC3)cc2)nc2ccc(F)cc12)N1CCC(O)CC1`, the selectivity ratio in data set [1] amounted to 1.57. In addition, the Papp in data set [2] stood at 3.67 ×10⁻⁶ cm/s. Besides, the pIC50 was 4.19 with Plasmodium falciparum [3] and 4.00 with L6 (read-out: IC50).

With `CC(NC(=O)c1cc(-c2ccc(CN3CCOCC3)cc2)nc2ccc(F)cc12)c1ccccc1` (racemic), in data set [1], the selectivity ratio was found to be 12.9. For the same molecule, the pIC50 with Plasmodium falciparum [3] is 5.25; with L6 (read-out: IC50), 4.14.

Take `CC(C)(C)OC(=O)N1CCN(CCNCc2cc(-c3ccc(CN4CCOCC4)cc3)nc3ccc(F)cc23)CC1`: the selectivity ratio is 1100 in data set [1] and 484 in data set [7]. For the same molecule, the pIC50 in the data set on Plasmodium falciparum [6] is 7.39; in the data set on Plasmodium falciparum [3], 7.74; in the data set on L6 (read-out: IC50), 4.70. Also, the Papp in data set [2] amounted to 4.57 ×10⁻⁶ cm/s.

For the molecule `O=C(NCC(F)(F)F)c1cc(-c2ccc(CN3CCOCC3)cc2)nc2ccc(F)cc12`, the selectivity ratio in data set [1] was found to be 11.3. The pIC50 with Plasmodium falciparum [3] was 5.06; with L6 (read-out: IC50), 4.00.

As for `COc1cc([C@@H]2c3cc4c(cc3[C@H](O)[C@H]3COC(=O)[C@H]23)OCO4)cc(OC)c1OC` [PODOFILOX], the pIC50 with L6 was 7.92.

As for `O=C(CN1CCCC1)Nc1cc(-c2ccc(CN3CCOCC3)cc2)nc2ccc(F)cc12`, the selectivity ratio came out at 54.6 in data set [1] and 69.3 in data set [7]. The results for the pIC50 with Plasmodium falciparum [6], in the data set with Plasmodium falciparum [3] and with L6 (read-out: IC50) were 6.09, 5.98 and 4.25, respectively.

Take `CC(C)(C)C(=O)N1CCN(CCC(=O)Nc2cc(-c3ccc(CN4CCOCC4)cc3)nc3ccc(F)cc23)CC1`: the values for the selectivity ratio in data set [1] and in data set [7] were 83.9 and 124, respectively. The pIC50 is 6.44 in the data set with Plasmodium falciparum [6], 6.28 with Plasmodium falciparum [3] and 4.35 in the data set on L6 (read-out: IC50).

As for `CCOC(=O)N1CCC(NC(=O)c2cc(-c3ccc(CN4CCOCC4)cc3)nc3ccc(F)cc23)CC1`, the selectivity ratio in data set [1] turned out to be 12.7. For the same molecule, the Papp in data set [2] is 0.19 ×10⁻⁶ cm/s. Besides, the values for the pIC50 in the data set on Plasmodium falciparum [3] and in the data set with L6 (read-out: IC50) were 5.15 and 4.04, respectively.

Regarding `CN1CCN(Cc2ccc(-c3cc(NC(=O)CCN4CCCC4)c4cc(F)ccc4n3)cc2)CC1`, in the data set on Plasmodium berghei [4], the Activity amounted to 99.6%. The selectivity ratio in data set [1] turned out to be 7780; in data set [7], 5370. In addition, the pIC50 in the data set on Plasmodium falciparum [6] was 8.54; in the data set with Plasmodium falciparum [3] it was 8.70; in the data set with L6 (read-out: IC50) it was 4.81. The MSD in the data set on Plasmodium berghei [5] was determined as 16 days.

As for `Fc1ccc2nc(-c3ccc(CN4CCOCC4)cc3)cc(CNCCN3CCCC3)c2c1`, the Activity in the data set on Plasmodium berghei [4] amounted to 99.4%. The selectivity ratio in data set [1] and in data set [7] was 48900 throughout. Moreover, the figures for the pIC50 in the data set on Plasmodium falciparum [6], in the data set with Plasmodium falciparum [3] and with L6 (read-out: IC50) were 8.96, 8.96 and 4.27, respectively. In addition, the Papp in data set [2] was 4.55 ×10⁻⁶ cm/s. This molecule also came in with an MSD with Plasmodium berghei [5] of 10 days.

For `O=C(c1cc(-c2ccc(CN3CCOCC3)cc2)nc2ccc(F)cc12)N1CCCCC1`, the selectivity ratio in data set [1] came to 2.69. For the same molecule, the pIC50 in the data set on Plasmodium falciparum [3] was 4.42; with L6 (read-out: IC50), 3.99.

In the case of `CCC(=O)N1CCN(C(=O)c2cc(-c3ccc(CN4CCOCC4)cc3)nc3ccc(F)cc23)CC1`, the selectivity ratio in data set [1] was determined as 12.6. The Papp in data set [2] came out at 5.53 ×10⁻⁶ cm/s. The pIC50 in the data set on Plasmodium falciparum [3] is 5.13; in the data set on L6 (read-out: IC50) it was 4.03.

Take `CN1CCN(CCC(=O)Nc2cc(-c3ccc(CN4CCOCC4)cc3)nc3ccc(F)cc23)CC1`: in data set [1], the selectivity ratio was determined as 51.8. The pIC50 in the data set with Plasmodium falciparum [3] was 6.21; in the data set with L6 (read-out: IC50) it was 4.50.

As to `CC(C)(C)OC(=O)N1CCN(CCC(=O)Nc2cc(-c3ccc(CN4CCOCC4)cc3)nc3ccc(F)cc23)CC1`, the selectivity ratio in data set [1] was determined as 216; in data set [7] it was 187. Moreover, the pIC50 with Plasmodium falciparum [6] is 6.52; in the data set on Plasmodium falciparum [3], 6.59; with L6 (read-out: IC50), 4.25.

Take `O=C(CCN1CCCC1)Nc1cc(-c2ccc(CN3CCOCC3)cc2)nc2ccc(F)cc12`: the Activity in the data set with Plasmodium berghei [4] is 33.9%. Besides, the selectivity ratio worked out at 30800 in data set [1] and 11200 in data set [7]. Moreover, the pIC50 with Plasmodium falciparum [6] is 7.96; with Plasmodium falciparum [3], 8.40; with L6 (read-out: IC50), 3.91. Also, in data set [2], the Papp was found to be 10.1 ×10⁻⁶ cm/s. In the data set on Plasmodium berghei [5], the MSD stood at 4 days.

As for `CCN(CC)CCCC(C)Nc1ccnc2cc(Cl)ccc12` (stereo not given) [CHLOROQUINE], the Activity in the data set on Plasmodium berghei [4] is 99.6%. Further, the MSD in the data set on Plasmodium berghei [5] is 20 days.

Regarding `O=C(NCCc1ccccc1)c1cc(-c2ccc(CN3CCOCC3)cc2)nc2ccc(F)cc12`, the selectivity ratio in data set [1] was determined as 3.57. Moreover, the figures for the pIC50 in the data set with Plasmodium falciparum [3] and in the data set with L6 (read-out: IC50) were 5.34 and 4.78, respectively.

As to `CC(C)(C)OC(=O)N1CCN(CC(=O)Nc2cc(-c3ccc(CN4CCOCC4)cc3)nc3ccc(F)cc23)CC1`, the selectivity ratio is 11.8 in data set [1] and 25.5 in data set [7]. Also, the results for the pIC50 with Plasmodium falciparum [6], in the data set with Plasmodium falciparum [3] and in the data set on L6 (read-out: IC50) were 5.46, 5.12 and 4.05, respectively.

Take `CCCN1CCN(Cc2cc(-c3ccc(CN4CCOCC4)cc3)nc3ccc(F)cc23)CC1`: in data set [1], the selectivity ratio was 7.67. Besides, the Papp in data set [2] was 9.26 ×10⁻⁶ cm/s. Besides, the pIC50 was 5.71 in the data set with Plasmodium falciparum [3] and 4.83 with L6 (read-out: IC50).

Turning to `CC(C)(C)C(=O)N1CCN(CC(=O)Nc2cc(-c3ccc(CN4CCOCC4)cc3)nc3ccc(F)cc23)CC1`, the selectivity ratio stood at 7.82 in data set [1] and 15.2 in data set [7]. Moreover, the pIC50 was 5.31 with Plasmodium falciparum [6], 5.02 in the data set with Plasmodium falciparum [3] and 4.13 in the data set with L6 (read-out: IC50).
